In patent publication US11952586B2, “B-cell cultivation method” (Hoffmann-La Roche Inc., priority 2017, dated 2024):

Tests used:
single deposited B-cells = test: co-cultivation of single deposited B-cells with EL-4 B5 feeder cells; IgG in supernatant by ELISA; format: cell-based, rabbit; details: for frequency per plate of rbIgG-positive wells: PMA 0.73 ng/ml; for average productivity/plate, IgG+ wells / frequency/plate rbIgG+: non-immunized animal
Procedure: Single cell sorted B-cells were cultured in 96-well plates with 200 μl/well EL-4 B5 medium with Pansorbin Cells (SAC) (Calbiochem (Merck), Darmstadt, Deutschland), EL-4 B5 cells (0-5×10^4/well) and rabbit thymocyte supernatant or cytokine mix, respectively, for 7 days at 37° C. in an atmosphere of 5% CO2 in the incubator. B-cell culture supernatants were removed for screening and the cells harvested immediately for variable region gene cloning or frozen at −80° C. in 100 μl RLT buffer (Qiagen, Hilden, Germany).
A mixture of 0.5 μg/ml of biotinylated mouse anti-rabbit IgG antibody (Sigma-Aldrich) and 0.35 μg/ml anti-rabbit IgG HRP conjugate (Sigma-Aldrich) was transferred to 384 well streptavidin coated microtiter plates (MicroCoat Biotechnologie GmbH). Dilutions of B-cell supernatants in PBS supplemented with 0.5% BSA and 0.05% Tween®-20 were added and incubated for 90 min at RT. After repeated washing (6×) with PBST (phosphate buffered saline with 0.2% Tween buffer the plates were developed with BM Blue® HRP substrate solution and color formation was measured by absorbance at 370 nm. A commercial rabbit IgG (Sigma-Aldrich) was used as a calibration standard.

EL-4 B5 cells = test: vitality of irradiated EL-4 B5 cells in presence of PMA; format: cell-based, murine
Excerpt: Different PMA concentrations in combination with single deposited cells of a non-immunized animal have been tested.

[1] = PMA 0.57 ng/ml, 50 Gy, 50k/Well
[2] = PMA 1.3 ng/ml, 3 Gy, 15k/Well, HSA immunized rabbit
[3] = c(PMA) 0.015 ng/ml, 4 Gy EL-4 B5
[4] = c(PMA) 0.03 ng/ml, 4 Gy EL-4 B5
[5] = c(PMA) 0.03 ng/ml, 50 Gy EL-4 B5
[6] = c(PMA) 0.06 ng/ml, 4 Gy EL-4 B5
[7] = c(PMA) 0.125 ng/ml, 4 Gy EL-4 B5
[8] = c(PMA) 0.25 ng/ml, 4 Gy EL-4 B5
[9] = c(PMA) 0.25 ng/ml, 50 Gy EL-4 B5
[10] = c(PMA) 1.3 ng/ml, 50 Gy EL-4 B5

Q: What does the source list for CCCCCCCCCCCCCC(=O)O[C@@H]1[C@@H](C)[C@@]2(O)[C@@H](C=C(CO)C[C@]3(O)C(=O)C(C)=C[C@@H]23)[C@@H]2C(C)(C)[C@]12OC(C)=O [PMA, phorbol-12-myristate-13-acetate]?
A: IgG+ Frequency (single deposited B-cells; PMA 0.57 ng/ml, 3 Gy, 15k/Well): 32.1 % total wells; Average IgG Productivity of all IgG+ wells (single deposited B-cells; PMA 0.57 ng/ml, 4 Gy, 20k/Well): 5.834 µg/mL; IgG+ Frequency (single deposited B-cells; PMA 0.57 ng/ml, 4 Gy, 20k/Well): 72.6 % total wells; Average IgG Productivity of all IgG+ wells (single deposited B-cells; PMA 0.57 ng/ml, 5 Gy, 20k/Well): 5.269 µg/mL; IgG+ Frequency (single deposited B-cells; PMA 0.57 ng/ml, 5 Gy, 20k/Well): 86.9 % total wells; Average IgG Productivity of all IgG+ wells (single deposited B-cells; PMA 0.57 ng/ml, 8 Gy, 20k/Well): 5.72 µg/mL; IgG+ Frequency (single deposited B-cells; PMA 0.57 ng/ml, 8 Gy, 20k/Well): 81 % total wells; Average IgG Productivity of all IgG+ wells (single deposited B-cells; [1]): 4.876 µg/mL; IgG+ Frequency (single deposited B-cells; [1]): 84.5 % total wells; frequency per plate of rbIgG-positive wells (single deposited B-cells; 0.031x CM, 5,000 non-irradiated EL-4 B5 cells per well): 76.2 % total; frequency per plate of rbIgG-positive wells (single deposited B-cells; 0.1x CM, 5,000 non-irradiated EL-4 B5 cells per well): 75.0 % total; frequency per plate of rbIgG-positive wells (single deposited B-cells; 0.31x CM, 5,000 non-irradiated EL-4 B5 cells per well): 67.9 % total; frequency per plate of rbIgG-positive wells (single deposited B-cells; 1x CM, 5,000 non-irradiated EL-4 B5 cells per well): 36.9 % total; frequency per plate of rbIgG-positive wells (single deposited B-cells; 2x CM, 5,000 non-irradiated (0 Gy) EL-4 B5 cells per well): 48.8 % total; Average IgG Productivity of all IgG+ wells (single deposited B-cells; [2]): 4.937 µg/mL; IgG+ Frequency (single deposited B-cells; [2]): 8.3 % total wells; Average IgG Productivity of all IgG+ wells (single deposited B-cells; PMA 1.3 ng/ml, 4 Gy, 20k/Well): 5.011 µg/mL; IgG+ Frequency (single deposited B-cells; PMA 1.3 ng/ml, 4 Gy, 20k/Well): 72.6 % total wells; Average IgG Productivity of all IgG+ wells (single deposited B-cells; PMA 1.3 ng/ml, 5 Gy, 20k/Well): 4.8 µg/mL; IgG+ Frequency (single deposited B-cells; PMA 1.3 ng/ml, 5 Gy, 20k/Well): 84.5 % total wells; Average IgG Productivity of all IgG+ wells (single deposited B-cells; PMA 1.3 ng/ml, 8 Gy, 20k/Well): 5.198 µg/mL; IgG+ Frequency (single deposited B-cells; PMA 1.3 ng/ml, 8 Gy, 20k/Well): 88.1 % total wells; Average IgG Productivity of all IgG+ wells (single deposited B-cells; PMA 1.3 ng/ml, 50 Gy, 50k/Well): 5.427 µg/mL; IgG+ Frequency (single deposited B-cells; PMA 1.3 ng/ml, 50 Gy, 50k/Well): 83.3 % total wells; average productivity/plate, IgG+ wells (single deposited B-cells; [3]): 3.90 µg/mL; frequency/plate rbIgG+ (single deposited B-cells; [3]): 54.0 % total; average productivity/plate, IgG+ wells (single deposited B-cells; [4]): 3.90 µg/mL; frequency/plate rbIgG+ (single deposited B-cells; [4]): 55.6 % total; average productivity/plate, IgG+ wells (single deposited B-cells; [5]): 1.36 µg/mL; frequency/plate rbIgG+ (single deposited B-cells; [5]): 52.4 % total; average productivity/plate, IgG+ wells (single deposited B-cells; [6]): 3.72 µg/mL; frequency/plate rbIgG+ (single deposited B-cells; [6]): 57.5 % total; average productivity/plate, IgG+ wells (single deposited B-cells; [7]): 3.78 µg/mL; frequency/plate rbIgG+ (single deposited B-cells; [7]): 56.0 % total; average productivity/plate, IgG+ wells (single deposited B-cells; [8]): 3.83 µg/mL; frequency/plate rbIgG+ (single deposited B-cells; [8]): 64.3 % total; average productivity/plate, IgG+ wells (single deposited B-cells; [9]): 2.48 µg/mL; frequency/plate rbIgG+ (single deposited B-cells; [9]): 54.4 % total; average productivity/plate, IgG+ wells (single deposited B-cells; c(PMA) 0.5 ng/ml, 4 Gy EL-4 B5): 4.06 µg/mL; frequency/plate rbIgG+ (single deposited B-cells; c(PMA) 0.5 ng/ml, 4 Gy EL-4 B5): 57.5 % total; average productivity/plate, IgG+ wells (single deposited B-cells; c(PMA) 1.3 ng/ml, 4 Gy EL-4 B5): 3.57 µg/mL; frequency/plate rbIgG+ (single deposited B-cells; c(PMA) 1.3 ng/ml, 4 Gy EL-4 B5): 56.0 % total; average productivity/plate, IgG+ wells (single deposited B-cells; [10]): 3.51 µg/mL; frequency/plate rbIgG+ (single deposited B-cells; [10]): 58.7 % total; Vitality (EL-4 B5 cells; c(PMA) 0.03 ng/ml, 4 Gy): 54.8%; Vitality (EL-4 B5 cells; c(PMA) 0.03 ng/ml, 50 Gy): 3.9%; Vitality (EL-4 B5 cells; c(PMA) 0.06 ng/ml, 4 Gy): 45.4%; Vitality (EL-4 B5 cells; c(PMA) 0.125 ng/ml, 4 Gy): 39.8%; Vitality (EL-4 B5 cells; c(PMA) 0.25 ng/ml, 4 Gy): 34%; Vitality (EL-4 B5 cells; c(PMA) 0.25 ng/ml, 50 Gy): 9.5%; Vitality (EL-4 B5 cells; c(PMA) 0.5 ng/ml, 4 Gy): 32.2%; Vitality (EL-4 B5 cells; c(PMA) 1.3 ng/ml, 4 Gy): 19.2%; Vitality (EL-4 B5 cells; c(PMA) 1.3 ng/ml, 50 Gy): 17.4%
